System: CD8+ T cells in PBMCs from patients with metastatic castrate-resistant prostate cancer
Assay: Patient PBMC restimulation assay (in vitro immunogenicity of neoantigens)
Assay type: cell-based, human
Settings: for Immunogenic: Patient PBMC restimulation, TNFα and IFNγ production by CD8+ T cells; for Maximum fold change over negative control: TNFα+IFNγ+CD8+ T cells, highest fold change across the PBMC donors evaluated, 9 mer peptide; for Maximum frequency of TNFα^+IFNγ^+CD8^+ T cells (Percent): greatest frequency among all tested PBMC donors, negative control 0.011-0.8 depending on patient
Procedure: PBMCs from human patients with metastatic castrate-resistant prostate cancer were thawed using media (RPMI 1640 supplemented with Glutamax, 10% HI FBS, and 1× Sodium Pyruvate). Cells were counted and plated in a 96 well round bottom microplate at a concentration of 250,000 viable cells per well. Lyophilized peptides were solubilized in 100% DMSO and diluted in media to 10 μg/mL. Neoantigen peptides were added in equal volume to PBMCs for a final concentration of 5 μg/mL. CEF Peptide Pool “Plus” (Cellular Technologies, Ltd.) was utilized as a positive control and DMSO at the same final concentration as the experimental peptides was utilized as a negative control. Human IL-15 (Peprotech) was added to all wells at final concentration of 10 ng/mL.
Plates were incubated at 37° C. (5% CO2) for a total of 13 days. Media was refreshed every 2 days with IL-15 (10 ng/mL final concentration) and IL-2 (R&D systems, 10 IU/mL final concentration). On day 12, PBMCs were re-stimulated with identical experimental peptides or controls, at same concentration as peptide stimulation on Day 1. After 1-hour incubation, protein Inhibitor Cocktail (eBioscience) was added to every well and plate was incubated overnight.
On day 13, cells were stained for intracellular flow cytometry analysis. The cells were washed with PBS and stained with Live/Dead Fixable Aqua Dead Cell stain (Thermo-Fisher). Following the live/dead stain, cells were blocked using Biotin-Free Fc Receptor Blocker (Accurate Chemical & Scientific Corp). Extracellular cellular flow panel (1 μL/antibody per well in 50 μL) consisted of CD3 PerCP-Cy5.5 (Biolegend), CD4 BV421 (Biolegend), and CD8 APC-Cy7 (Biolegend). After extracellular staining, cells were fixed using Foxp3/Transcription Factor Staining Buffer Set (eBioscience) and stained for intracellular proteins (1:50 dilution) using TNFα FITC (R&D Systems) and IFNγ BV785 (Biolegend). Cells were washed and resuspended in stain buffer and analyzed using a BD Celesta flow cytometer.
Flow cytometry cell staining analysis was completed using FlowJo v10. Cells were gated on live, singlet, CD3+ cells. The CD8+ T cells were analyzed for TNFα/IFNγ expression and the frequency of double positive TNFα/IFNγ CD8+ T cells was recorded. Responses were assessed to be positive when the frequency of double positive TNFα/IFNγ CD8+ T cells due to stimulation with an experimental peptide was increased greater than or equal to 2-fold over the DMSO only negative control for that patient. Peptides were analyzed in 1 to 7 patient samples.
The 9 mer fragments shown in Table 13 were assessed for their ability to activate T cells using the Patient PBMC restimulation assay described in Example 1 using TNFα and IFNγ production by CD8^+ T cells as a readout. Self-antigens shown in Table 15 were also used in the assays. […] PBMCs from ten patients were evaluated.

| Substance | Immunogenic | Maximum fold change over negative control | Maximum frequency of TNFα^+IFNγ^+CD8^+ T cells (Percent) [%] |
| --- | --- | --- | --- |
| P27 (FPVGAEGTF) [Peptide P27] | Yes | 3.43 | 0.430 |
| P37 (GVLRRLLCR) [Peptide P37] | Yes |  | 1.160 |
| P50 (IQYSCMGLM) [Peptide P50] | Yes | 5.14 | 0.190 |
| P59 (NMVENGCYL) [Peptide P59] | Yes | 10.75 | 3.010 |

— patent publication US20230035403A1, “Method For Determining Responsiveness To Prostate Cancer Treatment” (Janssen Biotech, Inc., priority 2020, published 2023)
